Patent US20180071296A1, “COMBINATION THERAPY COMPRISING AN INHIBITOR OF JAK, CDK, AND PIM” (Novartis AG, priority 2013, published 2018)

Columns and labels:
Format in all cases: in vivo
[1] = tested on: Ba/F3-EpoR-JAK2^V617F cells; test: Total tumor load (bioluminescence, IVIS xenogen) in mouse MPN model; conditions: study endpoint; for reduction of total tumor load (level of bioluminescence) relative to the vehicle control: first experiment, FIG. 1, Compound A 60 mg/kg PO BID, Compound B 75 mg/kg PO QD, alone or combined, SCID/Beige mice
From the text: The combination of Compound A, Compound B and Compound C was examined in a mouse model of MPN. In this model, Ba/F3 cells harbored Epo Receptor and JAK2 V617F mutations. Ba/F3-EpoR-JAK2^V617F was engineered with a luciferase tag for experimental imaging. Female SCID/Beige mice were inoculated with 1x10e6 Ba/F3-EpoR-JAK2^V617F cells through the tail vein. Total tumor load was monitored with IVIS xenogen technology. It is defined as the sum of dorsal and ventral photon signal.
In the first experiment, disease-bearing mice were randomized into treatment cohorts, based on the disease burden. Mice were treated with vehicle, Compound B at 75 mg/kg, by oral gavage (PO) daily (QD), Compound A at 60 mg/kg, PO, twice daily (BID) and the combination of both agents.
In the second experiment, disease-bearing mice were randomized into treatment cohort, based on the disease burden. Mice were treated with vehicle, Compound A at 60 mg/kg, PO, twice daily (BID), and the triple combination of Compound A, Compound B (at 75 mg/kg, QD, PO) and Compound C (at 25 mg/kg, QD, PO).

[2] = tested on: Ba/F3-EpoR-JAK2^V617F cells; test: Spleen weight at study endpoint in mouse MPN model
Method: (§1) The combination of Compound A, Compound B and Compound C was examined in a mouse model of MPN. In this model, Ba/F3 cells harbored Epo Receptor and JAK2 V617F mutations. Ba/F3-EpoR-JAK2^V617F was engineered with a luciferase tag for experimental imaging. Female SCID/Beige mice were inoculated with 1x10e6 Ba/F3-EpoR-JAK2^V617F cells through the tail vein. […] Additionally, JAK2V617F allele burden, defined as the relative ratio of JAK2V617F over wild type JAK2, is measured by taqman in PBMCs at study endpoint.
(§2) In the first experiment, disease-bearing mice were randomized into treatment cohorts, based on the disease burden. Mice were treated with vehicle, Compound B at 75 mg/kg, by oral gavage (PO) daily (QD), Compound A at 60 mg/kg, PO, twice daily (BID) and the combination of both agents. At study endpoint, spleen weight from each of the study cohorts was obtained. Relative change in the spleen weight was calculated by normalizing individual spleen weight against the mean spleen weight of the cohort receiving vehicle treatment.
In the second experiment, disease-bearing mice were randomized into treatment cohort, based on the disease burden. Mice were treated with vehicle, Compound A at 60 mg/kg, PO, twice daily (BID), and the triple combination of Compound A, Compound B (at 75 mg/kg, QD, PO) and Compound C (at 25 mg/kg, QD, PO). At study endpoint, spleen weight from each of the study cohorts was obtained. Relative spleen weight was calculated by normalizing individual spleen weight against the mean spleen weight of the cohort receiving vehicle treatment.

JAK2V617F allele burden = JAK2V617F allele burden in PBMC (taqman) at study endpoint in mouse MPN model; conditions: second experiment, FIG. 6, Compound A 60 mg/kg PO BID alone or with Compound B 75 mg/kg QD PO and Compound C 25 mg/kg QD PO
Method: as §1, §2
In the second experiment, disease-bearing mice were randomized into treatment cohort, based on the disease burden. […] Relative spleen weight was calculated by normalizing individual spleen weight against the mean spleen weight of the cohort receiving vehicle treatment.

[3] = first experiment, FIG. 2, Compound A 60 mg/kg PO BID, Compound B 75 mg/kg PO QD, alone or combined

Row | SMILES | reduction of total tumor load (level of bioluminescence) relative to the vehicle control [1] | reduction of spleen weight relative to that of the vehicle control [2, 3] | reduction of total tumor load (level of bioluminescence) ([1]; second experiment, FIG. 4, Compound A 60 mg/kg PO BID alone or with Compound B 75 mg/kg QD PO and Compound C 25 mg/kg QD PO) | reduction of spleen weight relative to that of the vehicle control ([2]; second experiment, FIG. 5, Compound A 60 mg/kg PO BID alone or with Compound B 75 mg/kg QD PO and Compound C 25 mg/kg QD PO) | down-modulation of JAK2V617F allele burden (JAK2V617F allele burden)
1 | CN(C)C(=O)c1cc2cnc(Nc3ccc(N4CCNCC4)cn3)nc2n1C1CCCC1 [Compound B, 7-Cyclopentyl-2-(5-piperazin-1-yl-pyridin-2-ylamino)-7H-pyrrolo[2,3-d]pyrimidine-6-carboxylic acid dimethylamide] | ~77% | ~38% |  |  | 
2 | N#CC[C@H](C1CCCC1)n1cc(-c2ncnc3[nH]ccc23)cn1 [Compound A, (3R)-3-cyclopentyl-3-[4-(7H-pyrrolo[2,3-d]pyrimidin-4-yl)pyrazol-1-yl]propanenitrile] | ~79% | ~62% | ~70% | ~53% | ~15%
